This is an account of results in article PMC9861386, “N-Heterocyclic Carbene-Iridium Complexes as Photosensitizers for In Vitro Photodynamic Therapy to Trigger Non-Apoptotic Cell Death in Cancer Cells” (Molecules, 2023).

Read-outs that look alike come from different tables or passages of the source.

A word on the Log P: it is the decadic logarithm of the partition coefficient of the neutral form, usually between octanol and water. A high value points to a more lipophilic compound. For orientation: GI50 means the concentration at which growth is held to half of that of the control.

The nature of series [1]: Octanol–water partition coefficient, shake-flask method. It counts as physicochemical. The following applies: n-octanol/water, UV absorbance 260 nm. As for the experimental part:
Lipophilicities of all complexes have been measured by the classical shake-flask method, using UV absorption. The Log p values range from -0.063 to 0.861 in increasing order –0.063 (4a), 0.035 (4d), 0.519 (4f), 0.581 (4c), 0.842 (4b), 0.847 (4e) and 0.861 (4g).
The octanol–water partition coefficients (P) of 4a to 4g were determined using a shake-flask method. Water (100 mL, distilled after milli-Q purification) and n-octanol (100 mL, Sigma-Aldrich, St. Louis, MO, USA, ACS spectrophotometric grade, ≥99%) were shaken together for 24 h to allow saturation of both phases. Stock solutions of the […] compounds (50 μM) were prepared in the aqueous phase and aliquots (1 mL) of each of these stock solutions were then added to an equal volume of the n-octanol phase. The resultant biphasic solutions were mixed for 1 h and then centrifuged (3000× g, 5 min) (Eppendorf Centrifuges 5415R and 5804R) to separate the phases. The concentrations of the complexes in the organic and aqueous phases were then determined using UV absorbance spectroscopy (260 nm). Log P was defined as the logarithm of the ratio of the concentrations of the studied complex in the organic and aqueous phases (Log P = Log {[Ir(org)]/[Ir(aq)]}; values reported are the means of at least two separate determinations).

Series [2] deals with T24 bladder cancer cells. In words: MTT cell viability, 72 h, dark or 458 nm irradiation. In kind it is cell-based, human. The following applies: for GI50: 72 h, MTT; for PI T24: GI50 non-irradiated / GI50 irradiated; for SI vs MC3T3, T24 Blue / SI vs NIH, T24 Blue: blue light; for SI vs MC3T3, T24 Blue / SI vs MC3T3, T24 Dark: GI50 MC3T3 / GI50 T24; for SI vs NIH, T24 Blue / SI vs NIH, T24 Dark: GI50 NIH-3T3 / GI50 T24. As for the experimental part:
(§1) For all biology experiments, the compounds were solubilized in DMSO to reach a final fixed concentration equal to 0.1% v/v to avoid cytotoxicity caused by DMSO [89]. The results are normalized to controls (0.1% v/v DMSO). Depending on the cell type, approximatively 1000 to 10,000 cells/cm^2 were seeded in 48-well plates for MTT, ATP and GSH assays and 60 mm Petri dishes for Western blots. Cells were allowed to attach overnight and then incubated for 4 h with the different complexes (in the dark), then irradiated for 10 min, followed by an incubation in the dark up to 72 h.
(§2) Irradiation was conducted using an in-house device: a series of blue light LEDs selected according to the absorption spectra of the compounds at a 458 nm wavelength with an emitted power of 9.6 watts. The absorbed energy, or irradiance, was measured at 458 nm with a Thorlabs Optical Power Meter PM100A at 5 and 10 cm distance between the cell layer and the light source and expressed as mW/cm^2.
(§3) A tetrazolium-based MTT reagent (3-(4,5-dimethylthiazol-2-yl)-2,5-diphenyltetrazolium bromide) was used to determine cell viability, as previously described. After 72 h of treatment at 37 °C and 5% CO2, cells were incubated with 25 μL MTT solution (5 mg/mL; Sigma-Aldrich) for 4 h. After solubilization with 500 μL of lysis buffer (DMSO), formazan was quantified by spectrophotometry with a microplate reader at 570 nm absorbance (ClarioSTAR, BMG LabTech, Champigny-sur-Marne, France). GI50 values corresponding to the concentration that caused 50% inhibition of cell proliferation were calculated from dose–response curves obtained by nonlinear regression analysis. All results were calculated from data obtained in at least three independent experiments.

Series [3] deals with MC3T3 osteoblasts. Described as above. In kind it is cell-based, murine. As for the experimental part:
as §1, §2, §3

For series [4], the system named is NIH-3T3 fibroblasts. The description is as above. It counts as cell-based, murine. As to conditions: for GI50: 72 h, MTT; for PI NIH-3T3: GI50 non-irradiated / GI50 irradiated. As for the experimental part: as §1, §2, §3
For series [5], the system named is panel of five cancer cell lines (T24, PC-3, MCF7, A549, HeLa). In words: MTT cell viability, 72 h, pooled over the cancer cell panel. In kind it is cell-based, human. As to conditions: for Average SI vs MC3T3, Blue light: GI50 MC3T3 / GI50 of all irradiated cancer cell lines; for Average SI vs NIH, Blue light: GI50 NIH-3T3 / GI50 of all irradiated cancer cell lines. The protocol: as §1, §2, §3

Series [6] is described as follows: Photophysical measurements (emission, quantum yield, lifetime) in CH2Cl2. It counts as physicochemical. The following applies: for τ1 excited-state lifetime: CH2Cl2; for ΦPL emission quantum yield: CH2Cl2, 298 K, references POPOP and quinine sulfate. The text has this: All complexes have been photophysically investigated at standard pressure in CH2Cl2 at 298 K. The absorption spectra of complexes 4a to 4g in CH2Cl2 at 298 K are shown in Figure 7. The strong absorption bands below 300 nm correspond to spin-allowed ^1π→π* electronic ligand-centered (LC) transitions. The structureless bands at 300–360 nm are attributed to ppy-to-ppy ^1π→π* […] charge transfer (LLCT) and Ir-to-ppy metal-to-ligand charge transfer (MLCT) transitions. The lowest-lying bands in the visible region can be assigned to both singlet and triplet MLCT transitions. No significant difference in the absorption spectra of complexes 4a to 4g can be found in the CH2Cl2 solution.
The luminescence spectra of complexes 4a to 4f in CH2Cl2 at 298 K are shown in Figure 8 and their photophysical data are summarized in Table 1.
The relative emission quantum yields (ΦPL) of these complexes in CH2Cl2 at room temperature were measured by using POPOP and quinine sulfate in 1 N H2SO4 as standard references (ΦPL = 97% and ΦPL = 54%, respectively). […] In addition, the excited-state lifetimes of complexes 4a to 4d are in the range of 166.4–190.7 ns, indicating the phosphorescence nature of the emissions.
UV/Vis absorption spectra were recorded at RT on solutions contained in quartz cuvettes (optical pathlength 1 cm, Hellma® (HELLMA, Müllheim, Germany)) with a PerkinElmer® (PerkinElmer, Waltham, MA, USA) UV/VIS/NIR spectrophotometer Lambda 950 and a PerkinElmer® detector UV/VIS/NIR Accessory 2D Detector Module.
Fluorescence and phosphorescence emission spectra were obtained with a HORIBA JOBIN YVON (Bensheim, Germany) fluromax-4 and spectrofluorometer.
Luminescence quantum yields were measured according to the method of Demas and Crosby, on solution samples at RT. The quantum yield is defined as: ΦS=ΦR*As/Ar* ηs/ηr^2^2 where ΦS is the quantum yield of the sample, ΦR is the known quantum yield of the reference standard at the area subtended by the emission band (on a wavelength scale) and η is the refractive index of the solvent used for the preparation of the solution. As (related to the sample) and Ar (related to the reference) must be excitation wavelength. Different standards were selected depending on the spectral region of the interest: POPOP in hexane (Φ = 97%) and QUININNE in water (Φ = 54%).
Fluorescence lifetime measurements were performed by an Edinburgh FLS920 spectrofluorometer equipped with a TCC900 card for data acquisition in time-correlated single-photon counting experiments (0.5 ns time resolution) with a D2 lamp and an LDH-P-C-405 pulsed diode laser. The estimated experimental error was 2 nm on the band maximum (5% on the lifetime, 10% on the fluorescence quantum yield).

The mark [7] stands for this setting: 458 nm irradiation 10 min, read-out: GI50 T24 Blue.
Where [8] appears, read: 458 nm irradiation 10 min, read-out: GI50 MC3T3 Blue.
The mark [9] stands for this setting: dark, read-out: GI50 MC3T3 Dark.
Setting [10] is: 458 nm irradiation 10 min, read-out: GI50 NIH-3T3 Blue.
Where [11] appears, read: dark, read-out: GI50 NIH-3T3 Dark.

For the compound `CC(C)C[n+]1ccn2[c]1[Ir-3]13([c]4ccccc4-c4cccc[n+]41)([c]1ccccc1-c1cccc[n+]13)[c]1n(cc[n+]1CC(C)C)C2.F[P-](F)(F)(F)(F)F` [Complex 4b], the lipophilicity (Log P) in series [1] was 0.842. Moreover, the GI50 in series [2] (setting [7]) came out at 90 nM; in series [2] (dark, read-out: GI50 T24 Dark), 259 nM; in series [3] (setting [8]), 704 nM; in series [3] (setting [9]), 979 nM; in series [4] (setting [10]), 1520 nM; in series [4] (setting [11]) it was 1950 nM. In addition, the “PI T24” value in series [2] was determined as 2.8. The “SI vs MC3T3, T24 Blue” value in series [2] is reported as 7.7. Further, the “SI vs NIH, T24 Blue” value in series [2] amounted to 16.7. Besides, in series [2] (dark), the “SI vs MC3T3, T24 Dark” value came to 3.8. Moreover, the “SI vs NIH, T24 Dark” value in series [2] (dark) is listed as 7.5. Further, in series [4], the “PI NIH-3T3” value was 1.3. Further, in series [5], the “Average SI vs MC3T3, Blue light” value was found to be 8.3. The “Average SI vs NIH, Blue light” value in series [5] worked out at 18. Also, the τ1 excited-state lifetime in series [6] worked out at 166 ns. For the same compound, in series [6], the “ΦPL emission quantum yield” value was 1.6%.

With `CC(C)[n+]1ccn2[c]1[Ir-3]13([c]4ccccc4-c4cccc[n+]41)([c]1ccccc1-c1cccc[n+]13)[c]1n(cc[n+]1C(C)C)C2.F[P-](F)(F)(F)(F)F` [Complex 4a], the “Log P” value in series [1] is on record as “–0.063”. Further, the concentration for 50% growth inhibition (GI50) in series [2] (setting [7]) was found to be 82 nM; in series [2] (dark, read-out: GI50 T24 Dark) it was 288 nM; in series [3] (setting [8]) it was 1740 nM; in series [3] (setting [9]), 2460 nM; in series [4] (setting [10]), 2790 nM; in series [4] (setting [11]), 3670 nM. Besides, in series [2], the “PI T24” value is on record as 3.5. The “SI vs MC3T3, T24 Blue” value in series [2] worked out at 21.2. Besides, the “SI vs NIH, T24 Blue” value in series [2] came to 34.0. Moreover, the “SI vs MC3T3, T24 Dark” value in series [2] (dark) amounted to 8.5. Further, in series [2] (dark), the “SI vs NIH, T24 Dark” value is reported as 12.7. Further, in series [4], the “PI NIH-3T3” value was 1.3. Moreover, the τ1 excited-state lifetime in series [6] was 191 ns. Moreover, the “ΦPL emission quantum yield” value in series [6] is reported as 1.2%.

For the compound `F[P-](F)(F)(F)(F)F.c1ccc(C[n+]2ccn3[c]2[Ir-3]24([c]5ccccc5-c5cccc[n+]52)([c]2ccccc2-c2cccc[n+]24)[c]2n(cc[n+]2Cc2ccccc2)C3)cc1` [Complex 4c], the lipophilicity (Log P) in series [1] is recorded as 0.581. The GI50 in series [2] (setting [7]) turned out to be 91 nM; in series [2] (dark, read-out: GI50 T24 Dark), 358 nM; in series [3] (setting [8]) it was 1330 nM; in series [3] (setting [9]), 1160 nM; in series [4] (setting [10]) it was 2670 nM; in series [4] (setting [11]), 2730 nM. For the same compound, the “PI T24” value in series [2] is listed as 3.9. Moreover, the “SI vs MC3T3, T24 Blue” value in series [2] is 14.6. Moreover, the “SI vs NIH, T24 Blue” value in series [2] is recorded as 29.3. In series [2] (dark), the “SI vs MC3T3, T24 Dark” value is on record as 3.2. The “SI vs NIH, T24 Dark” value in series [2] (dark) is 7.6. For the same compound, the “PI NIH-3T3” value in series [4] came to 1.0. The “Average SI vs MC3T3, Blue light” value in series [5] is listed as 12.1. Moreover, in series [5], the “Average SI vs NIH, Blue light” value is listed as 24.3. The compound also came in with a τ1 excited-state lifetime in series [6] of 180 ns. In series [6], the “ΦPL emission quantum yield” value came to 1.6%.

Regarding `CSc1ccc(-[n+]2ccn3[c]2[Ir-3]24([c]5ccccc5-c5cccc[n+]52)([c]2ccccc2-c2cccc[n+]24)[c]2n(cc[n+]2-c2ccc(SC)cc2)C3)cc1.F[P-](F)(F)(F)(F)F` [Complex 4d], the “Log P” value in series [1] came out at 0.035. Besides, the GI50 in series [2] (setting [7]) is 165 nM. Moreover, in series [2], the “PI T24” value is reported as 3.0; the “SI vs MC3T3, T24 Blue” value is 10.9; the “SI vs NIH, T24 Blue” value stood at 16.8. Moreover, in series [2] (dark, read-out: GI50 T24 Dark), the GI50 was found to be 501 nM. Besides, in series [2] (dark), the “SI vs MC3T3, T24 Dark” value amounted to 4.2 and the “SI vs NIH, T24 Dark” value stood at 4.7. In addition, the concentration for 50% growth inhibition (GI50) in series [3] (setting [8]) worked out at 1800 nM. Also, the GI50 in series [3] (setting [9]) was 2080 nM. In addition, in series [4] (setting [10]), the concentration for 50% growth inhibition (GI50) was found to be 2780 nM. Besides, in series [4], the “PI NIH-3T3” value came out at 0.8. Besides, the concentration for 50% growth inhibition (GI50) in series [4] (setting [11]) worked out at 2330 nM. Also, in series [5], the “Average SI vs MC3T3, Blue light” value is recorded as 8.6 and the “Average SI vs NIH, Blue light” value is 13.2. In series [6], the τ1 excited-state lifetime came to 167 ns and the “ΦPL emission quantum yield” value is given as 1.1%.
